This is an account of results in patent publication US12522587B2, “Cancer treatments targeting cancer stem cells” (Remedy Plan, Inc., priority 2018, dated 2026).

The assay deals with AGS cells. As to the kind of experiment: Cell viability in AGS cells (CellTiter Glo2, 8-point dose response, 4 days). Format: cell-based, human. On the procedure:
AGS cells were treated with DMSO (no drug control) or each compound in Table 5 in an 8-point dose response for 4 days. Cell viability was measured using CellTiter Glo2. The IC50 of each compound was determined using CDD Vault.

Read-outs that look alike come from different tables or passages of the source.

`CCC(=O)N1CCc2cc(-c3ccc(C(=O)NCc4ccco4)cc3)ccc21` [Compound I-181] displayed an IC50 (Homo sapiens, AGS, 96 h) above 30 µM. `CCC(=O)N1CCc2cc(-c3ccc(C(=O)NCc4ccccn4)cc3)ccc21` [Compound I-185, 4-(1-propionylindolin-5-yl)-N-(pyridin-2-ylmethyl)benzamide] came in with an IC50 of 21 µM. Further, where the note is “Homo sapiens, AGS, 96 h”, the IC50 was 15.5 µM. Regarding `CCC(=O)N1CCc2cc(-c3ccc(C(=O)NCC4CCCCC4)cc3)ccc21` [Compound I-186, N-(cyclohexylmethyl)-4-(1-propionylindolin-5-yl)benzamide], the IC50 (Homo sapiens, AGS, 96 h) was above 30 µM.

`CCC(=O)N1CCc2cc(-c3ccc(C(=O)NCc4cnccc4C)cc3)ccc21` [Compound I-188, N-((4-methylpyridin-3-yl)methyl)-4-(1-propionylindolin-5-yl)benzamide]: the IC50 (Homo sapiens, AGS, 96 h) is above 30 µM. With `CCC(=O)N1CCc2cc(-c3ccc(C(=O)NCC4CCOCC4)cc3)ccc21` [Compound I-191, 4-(1-propionylindolin-5-yl)-N-((tetrahydro-2H-pyran-4-yl)methyl)benzamide], the IC50 (Homo sapiens, AGS, 96 h) is above 30 µM.

In turn, `CCC(=O)N1CCc2cc(-c3ccc(C(=O)NCC4CN(C(=O)OC(C)(C)C)C4)cc3)ccc21` [Compound I-196] showed an IC50 (Homo sapiens, AGS, 96 h) above 30 µM. The same measure, in the same setting: the value for `CCC(=O)N1CCc2cc(-c3ccc(C(=O)NCc4cccnn4)cc3)ccc21` [Compound I-197, 4-(1-propionylindolin-5-yl)-N-(pyridazin-3-ylmethyl)benzamide] was 25.2 µM; that for `CCC(=O)N1CCc2cc(-c3ccc(C(=O)NCc4cncc(C)c4)cc3)ccc21` [Compound I-198, N-((5-methylpyridin-3-yl)methyl)-4-(1-propionylindolin-5-yl)benzamide] was 1.06 µM; that for `CCC(=O)N1CCc2cc(-c3ccc(C(=O)NCC4CNC4)cc3)ccc21` [Compound I-200, N-(azetidin-3-ylmethyl)-4-(1-propionylindolin-5-yl)benzamide] was above 30 µM. Regarding `CCC(=O)N1CCc2cc(-c3ccc(C(=O)NCc4ccncn4)cc3)ccc21` [Compound I-204, 4-(1-propionylindolin-5-yl)-N-(pyrimidin-4-ylmethyl)benzamide], the IC50 (Homo sapiens, AGS, 96 h) is above 30 µM. Still for that read-out and setting: the value for `CCC(=O)N1CCc2cc(-c3ccc(C(=O)NCC4CCCC4)cc3)ccc21` [Compound I-207] was above 100 µM. `CCC(=O)N1CCc2cc(-c3nc(C(=O)NCc4cccnc4)c[nH]3)ccc21` [Compound I-208, 2-(1-propionylindolin-5-yl)-N-(pyridin-3-ylmethyl)-1H-imidazole-4-carboxamide] displayed an IC50 of 15.1 µM. The IC50 (Homo sapiens, AGS, 96 h) is above 30 µM.

Where the note is “Homo sapiens, AGS, 96 h”, `CCC(=O)N1CCc2cc(N3CC(C(=O)NCc4cccnc4)C3)ccc21` [Compound I-209, 1-(1-propionylindolin-5-yl)-N-(pyridin-3-ylmethyl)azetidine-3-carboxamide] displayed an IC50 above 30 µM.

For the compound `CCC(=O)N1CCc2cc(-c3ccc(C(=O)NCc4cccnc4)c(O)c3)ccc21` [Compound I-210], it took 3.02 µM to reach half-maximal inhibition (Homo sapiens, AGS, 96 h) (IC50). The same measure, in the same setting: the figure for `CCC(=O)N1CCc2cc(-c3ccc(C(=O)NCc4cccnc4)cc3)c(F)cc21` [Compound I-211] is 1.16 µM; for `CCC(=O)N1CCc2cc(-c3ccc(C(=O)NCc4cccnc4)cc3)c(Cl)cc21` [Compound I-212] it is 1.35 µM; for `CCC(=O)N1CCc2c1ccc(-c1ccc(C(=O)NCc3cccnc3)cc1)c2F` [Compound I-213] it is 3.48 µM. Consider `CCC(=O)N1CCc2c1ccc(-c1ccc(C(=O)NCc3cccnc3)cc1)c2Cl` [Compound I-214], for which the IC50 (Homo sapiens, AGS, 96 h) came to 0.96 µM. This IC50 lies about 3.6-fold lower than the previous one. Same read-out and setting: the value for `CCC(=O)N(C)c1ccc(-c2ccc(C(=O)NCc3cccnc3)cc2)cc1C` [Compound I-215, 3′-methyl-4′-(N-methylpropionamido)-N-(pyridin-3-ylmethyl)-[1,1′-biphenyl]-4-carboxamide] was 1.82 µM; that for `CC(=O)N(C)c1ccc(-c2ccc(C(=O)NCc3cccnc3)cc2)cc1C` [Compound I-216] was 2.44 µM; that for `CCC(=O)N(C)c1ccc(-c2ccc(C(=O)NCc3cccnc3)cc2)c(C)c1` [Compound I-217] was 1.85 µM.
